The target in one experiment is T1, P450cam (Pseudomonas putida, UniProt P00183, R187A).
T1 sequence (P00183 2-415 R187A): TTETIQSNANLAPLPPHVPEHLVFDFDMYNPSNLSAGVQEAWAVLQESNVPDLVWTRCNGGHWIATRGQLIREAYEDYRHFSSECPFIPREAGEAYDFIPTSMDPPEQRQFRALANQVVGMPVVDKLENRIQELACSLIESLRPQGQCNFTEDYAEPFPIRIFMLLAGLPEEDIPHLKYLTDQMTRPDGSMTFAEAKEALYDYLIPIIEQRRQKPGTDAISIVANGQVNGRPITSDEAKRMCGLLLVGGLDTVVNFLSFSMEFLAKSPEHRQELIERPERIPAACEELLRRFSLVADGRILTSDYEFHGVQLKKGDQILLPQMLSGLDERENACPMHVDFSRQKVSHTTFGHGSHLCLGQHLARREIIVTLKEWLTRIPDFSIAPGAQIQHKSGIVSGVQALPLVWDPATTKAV
The experiment in a line: isothermal titration calorimetry. Type of experiment: binding.

Experiment [1] concerns the target T2, R186A mutant of cytochrome P450cam (Pseudomonas putida, UniProt P00183 2-415, R186A).
T2 sequence: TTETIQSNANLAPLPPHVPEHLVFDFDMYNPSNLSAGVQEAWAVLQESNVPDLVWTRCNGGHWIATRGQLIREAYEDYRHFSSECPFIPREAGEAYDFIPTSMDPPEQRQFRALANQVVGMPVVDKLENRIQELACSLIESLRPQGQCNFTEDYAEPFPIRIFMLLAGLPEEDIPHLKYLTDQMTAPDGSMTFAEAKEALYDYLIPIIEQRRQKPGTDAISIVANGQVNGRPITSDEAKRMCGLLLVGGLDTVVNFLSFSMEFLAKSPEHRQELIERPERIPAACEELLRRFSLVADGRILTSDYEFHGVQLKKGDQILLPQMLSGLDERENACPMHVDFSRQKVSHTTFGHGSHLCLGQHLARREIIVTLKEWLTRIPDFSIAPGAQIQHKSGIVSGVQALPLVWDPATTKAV
Put plainly: ITC.

As to `CC1(C)[C@@H]2CC[C@@]1(C)C(=O)C2` [D-camphor], the dissociation constant (Kd) on P450cam turned out to be 32.2 ± 4 µM.

B1: putidaredoxin (natural protein, Pseudomonas putida)
chain: MSKVVYVSHDGTRRELDVADGVSLMQAAVSNGIYDIVGDCGGSASCATCHVYVNEAFTDKVPAANEREIGMLECVTAELKPNSRLCCQIIMTPELDGIVVDVPDRQW
With B1, the Kd in experiment [1] stood at 22.1 µM.

Source of the values: publication PMC5640156 (Journal of the American Chemical Society, 2017).
